In patent US4698332A, “Expectorant” (Mect Corporation, priority 1984, dated 1987):

Experiments:
[1] = tested on: ciliated cells from human airway and frog palate; assay: Rotation of ciliated cell groups (Example 4); format: cell-based
Text: Using ciliated cells from human airway and frog palate, rotation of cell groups due to ciliary beat was observed before and after application of N-acetylneuraminic acid and calcium salt of N-acetylneuraminic acid, in order to confirm the effect of these agents on the cilitated cells.
Human ciliated cells were collected from a normal trachea by means of a branchoscope, the ciliated cells being separated by rubbing the bronchus while observing through the branchoscope, while the collection of frog cilitated cells was conducted by rubbing the palatine mucosta, without being specially careful. […] The groups of cells were transferred to a cover slip and one drop of chicken plasma (prepared by Difco Company) and one drop of 50% chicken embryo extract were added to the cells, thus forming clots. The rotary motion in the clots was recorded by means of a video recorder and the number of rotations per minute was measured.

[2] = Physicochemical properties (pH, yield value, spinnability) of treated sputum (Example 5); set-up: species or system human; details: for Yield value after treatment / pH of sputum after treatment / Spinnability after treatment: 2 mg
Description: (§1) Mucociliary transport rate (hereinunder referred to as MTR), i.e. the rate of transport of sputum by cilia, was measured using frog palatine mucosa. At the same time, physicochemical properties of the sputum before and after application of N-acetylneuraminic acid were compared.
(§2) The sputum used as the specimens was collected from 12 samples of patients suffering from chronic obstructive lung disease. N-acetylneuraminic acid was added to the specimen sputum in the ratios of 5 mg/ml sputum and 1 mg/ml sputum, and the specimen was left for 1 hour at 4° C. before measurement. Sputum which has not been treated by N-acetylneuraminic acid was used as a comparison example. A palatine mucosa obtained from a decapitated frog head was kept at constant temperature and humidity until the mucus liquid of the frog itself depleted. The specimen sputum was placed on the dried palatine mucosa, and the speed of movement of the sputum was observed through a noumenal microscope, thus measuring the MTR. The pH value of the sputum was measured by means of an electronic model HM-SAp pH meter, while the spinnability was measured by a device developed by Nagaoka and Yamanaka (disclosed in Transactions of 2nd Symposium of Cough and sputum, published July 20, 1979). The yield value was measured by Dulfano's double-tube method which is shown in the American Review of Respiratory Diseases, Vol. 104, p88, 1971.

palatine mucosa of frog = assay: Ciliary movement of frog palatine mucosa, particle transport method (Example 3, Tables 1-3); format: cell-based, bull frog
Description: Bull frogs (furnished by Saitama Test Animal) weighing 300 to 450 g were used regardless of sex.
N-acetylneuraminic acid and calcium salt of N-acetylneuraminic acid (provided by Kanto Ishiseiyaku Kabushiki Kaisha), as well as acetylcholine chloride (furnished by Sigma Kabushiki Kaisha) were used as the test substances.
Mucociliary transport was measured by the particle transport method. After decapitation of a frog, the surface of the palatine mucosa was separated with minimized damage and of fixed to a cork plate in a Petri dish which was then filled with 20 ml of Ringer's solution (trishydrochloric acid). The palatine mucosa was left in this state for 30 minutes before the commencement of measurement. For measurement, the Ringer's solution was removed and fine pieces of cork (capable of passing pharmaceutical sieve No. 5 but not capable of passing No. 6) were placed on the surface of the palatine mucosa, and the time (in seconds) required for the cork piece to move 1 cm was measured. The duration of movement, i.e., moving speed, was measured also in the state immediately after the removal of the Ringer's solution or pharmaceutical solution.

[3] = Acute toxicity test of N-acetylneuraminic acid, mice (Example 6); set-up: species or system ICR mice; details: mouse, in vivo
Description: (§3) A test was conducted to examine the acute toxicity of N-acetylneuraminic acid, using mice and rats, by means of intravenous injection, subcutaneous injection, per os inhalation.
(§4) 13 to 15% (W/V) dissolved in distilled water
(§5) By Litchfield-Wilcoxon method.

[4] = Acute toxicity test of N-acetylneuraminic acid, rats (Example 6); format: in vivo, SD rats; details: rat, in vivo
Description: as §3
(§6) SD rats: 6 weeks old (7 weeks old in case of inhalation)
as §4, §5
(§7) Inhalation was conducted by 1hr exposure to mist.

rats = assay: as above; format: in vivo, SD rats; details: inhalation, 1hr exposure to mist
Description: as §3, §6, §4, §5, §7

[5] = tested on: sputum of patients with chronic obstructive lung disease on frog palatine mucosa; assay: Mucociliary transport rate (MTR) of treated sputum on frog palatine mucosa (Example 5); set-up: species or system human sputum; frog palatine mucosa; details: for MTR after treatment: 2 mg
Description: as §1, §2

[6] = sample 5 (viscous sputum, 2 ml), before 18

CC(=O)N[C@H]1[C@H]([C@H](O)[C@H](O)CO)OC(O)(C(=O)O)C[C@@H]1O (stereo partly shown) [N-acetylneuraminic acid]
Increase of rotation speed (revolutions per minute) over Medium 199 at plateau ([1]; 10^-3 to 10^-2 mg/ml, 5, 10 and 15 minutes after application): about 25%
Effect on rotary motion of the cilium cells ([1]; 10^-4 to 10^-1 mg/ml): gradually accelerated starting immediately after the application
Change of spinnability of sputum ([2]; 1 mg/ml): five samples showed a reduction, while one sample showed a slight increase
Change of yield value of sputum ([2]; 1 mg/ml): Increase in the yield value was observed in three samples, while three samples showed a reduction. The yield value was unchanged in the remaining one sample
Change of sputum pH value ([2]; 1 mg/ml, six samples): five out of six samples treated with 1 mg/ml of N-acetylneuraminic acid showed a reduction in pH value (pH 7.31 0.40), while the remaining one sample showed a slight increase in pH value
Yield value after treatment ([2]; sample 1 (viscous sputum, 2 ml), before 3.7): 11.5 mmH2 O
pH of sputum after treatment ([2]; sample 1 (viscous sputum, 2 ml), before 7.72): 7.35
Spinnability after treatment ([2]; sample 1 (viscous sputum, 2 ml), before 55): 19 mm
Yield value after treatment ([2]; sample 2 (viscous sputum, 2 ml), before 0.1): 0.1 mmH2 O
pH of sputum after treatment ([2]; sample 2 (viscous sputum, 2 ml), before 7.52): 7.62
Spinnability after treatment ([2]; sample 2 (viscous sputum, 2 ml), before 10): 3 mm
Yield value after treatment ([2]; sample 3 (pus sputum, 2 ml), before 2.7): 0.7 mmH2 O
Spinnability after treatment ([2]; sample 3 (pus sputum, 2 ml), before 5): 2 mm
pH of sputum after treatment ([2]; sample 3 (pus sputum, 2 ml), before 7.98): 7.20
Yield value after treatment ([2]; sample 4 (viscous sputum, 2 ml), before 1.9): 3.2 mmH2 O
pH of sputum after treatment ([2]; sample 4 (viscous sputum, 2 ml), before 6.98): 6.84
Spinnability after treatment ([2]; sample 4 (viscous sputum, 2 ml), before 22): 12 mm
Yield value after treatment ([2]; sample 5 (viscous sputum, 2 ml), before 2.2): 3.1 mmH2 O
pH of sputum after treatment ([2]; sample 5 (viscous sputum, 2 ml), before 7.24): 6.94
Spinnability after treatment [2, 6]: 16 mm
pH of sputum after treatment ([2]; sample 6 (viscous sputum, 2 ml), before 8.16): 7.88
Yield value after treatment ([2]; sample 6 (viscous sputum, 2 ml), before 14.3): 7.5 mmH2 O
Spinnability after treatment ([2]; sample 6 (viscous sputum, 2 ml), before 22): 26 mm
Movement (palatine mucosa of frog; 10^-4 g/ml, frog number 1): 17.3 s/cm
Movement (palatine mucosa of frog; 10^-4 g/ml, frog number 2): 22.0 s/cm
Movement (palatine mucosa of frog; 10^-4 g/ml, frog number 3): 20.7 s/cm
Movement (palatine mucosa of frog; 10^-4 g/ml, frog number 4): 22.0 s/cm
Movement (palatine mucosa of frog; 10^-5 g/ml, frog number 1): 21.3 s/cm
Acceleration (palatine mucosa of frog; 10^-5 g/ml, frog number 1, control = 0): 33.4%
Movement (palatine mucosa of frog; 10^-5 g/ml, frog number 2): 27.3 s/cm
Acceleration (palatine mucosa of frog; 10^-5 g/ml, frog number 2, control = 0): 16.5%
Movement (palatine mucosa of frog; 10^-5 g/ml, frog number 3): 28.7 s/cm
Acceleration (palatine mucosa of frog; 10^-5 g/ml, frog number 3, control = 0): 28.2%
Movement (palatine mucosa of frog; 10^-5 g/ml, frog number 4): 24.7 s/cm
activation at 10 µg/mL (palatine mucosa of frog; 10^-5 g/ml, frog number 4, control = 0, read-out: Acceleration): 31.4%
Effect on ciliary movement of palatine mucosa (palatine mucosa of frog; Tables 1 and 3): acceleration of the ciliary movement of palatine mucosa in a certain dose-dependency
Ciliary movement promoting effect compared with acetylcholine (palatine mucosa of frog; acetylcholine control at 10^-5 and 10^-4): substantially the same ciliary movement promoting effect as the acetylcholine
LD50 at 336 h ([3]; iv, mice F, 95% 2137-2925): 2500 mg/kg
LD50 at 336 h ([3]; iv, mice M, 95% 1441-2008): 1700 mg/kg
LD50 at 336 h ([3]; po, per os, mice F): > 5000 mg/kg
LD50 at 336 h ([3]; po, per os, mice M): > 5000 mg/kg
LD50 at 336 h ([3]; sc, subcutaneous, mice F): > 5000 mg/kg
LD50 at 336 h ([3]; sc, subcutaneous, mice M): > 5000 mg/kg
LD50 at 336 h ([4]; iv, rats F, 95% 1741-2030): 1880 mg/kg
LD50 at 336 h ([4]; iv, rats M, 95% 1748-2001): 1870 mg/kg
LD50 at 336 h ([4]; po, per os, rats F): > 5000 mg/kg
LD50 at 336 h ([4]; po, per os, rats M): > 5000 mg/kg
LD50 at 336 h ([4]; sc, subcutaneous, rats F): > 5000 mg/kg
LD50 at 336 h ([4]; sc, subcutaneous, rats M): > 5000 mg/kg
LD50 (rats; rats F): > 4.33 g/m^3
LD50 (rats; rats M): > 4.33 g/m^3
Change of MTR of sputum ([5]; 1 mg/ml, samples with reduced spinnability): tendency to increased MTR
MTR after treatment ([5]; sample 1 (viscous sputum, 2 ml), before 19): 38 mm/min
MTR after treatment ([5]; sample 2 (viscous sputum, 2 ml), before 8): 19 mm/min
MTR after treatment ([5]; sample 3 (pus sputum, 2 ml), before 20): 27 mm/min
MTR after treatment ([5]; sample 4 (viscous sputum, 2 ml), before 25): 29 mm/min
MTR after treatment [5, 6]: 30 mm/min
MTR after treatment ([5]; sample 6 (viscous sputum, 2 ml), before 15): 18 mm/min
